Results reported in patent US6346260B1, “Microbicidal active ingredients” (Ciba Specialty Chemicals Corporation, priority 1999, dated 2002).

Tests used:
Type in all cases: cell-based
[1] = system: Corynebacterium xerosis ATCC 373; experiment: MIC in microtitre plates, Corynebacterium xerosis; details: ATCC373, Table 1, 48 hours at 37° C., ≦20% growth
Procedure: (§1) Determination of Antimicrobial Activity in Accordance with the Microtitre Plate Method Determination of the Minimum Inhibitory Concentration (MIC value) in Microtitre Plates casein-soybean flour-peptone bouillon for the preparation of the precultures of the test bacteria and yeast. Corynebacterium xerosis ATCC 373 The test substances are predissolved in dimethyl sulfoxide (DMSO) and tested in a dilution series of 1:2. Bacteria and yeast are cultured overnight in CASO bouillon, the mould on mycological slant agar and rinsed off with 10 ml of 0.85% sodium chloride solution (+0.1% TritonX-100). All test organisms are adjusted to an organism count of 1-5*10^6 CFU/ml with 0.85% sodium chloride solution. The test substances are prepipetted into microtitre plates in an amount of 8 μl per well. Previously diluted test organism suspensions are diluted 1:100 in CASO bouillon (bacteria and yeast) and Sabouraud 2% glucose bouillon (mould) and added to the test substances in an amount of 192 μl per well. The test batches are incubated for 48 hours at 37° C. (bacteria and yeast) or for 5 days at 28° C. (mould). After incubation, the growth is determined by reference to the turbidity of the test batches (optical density) at 620 nm in a microplate reader. […]

[2] = system: Aspergillus niger ATCC 6275; experiment: MIC in microtitre plates, Aspergillus niger; details: Aspergillus niger, ATCC6275, 120 h; Table 1; ATCC 6275; 5 days at 28° C.; ≦20% growth; read-out: MIC Aspergillus niger
Procedure: (§2) Determination of Antimicrobial Activity in Accordance with the Microtitre Plate Method Determination of the Minimum Inhibitory Concentration (MIC value) in Microtitre Plates Mycological slant agar for the preculture of moulds. Aspergillus niger ATCC 6275 The test substances are predissolved in dimethyl sulfoxide (DMSO) and tested in a dilution series of 1:2. Bacteria and yeast are cultured overnight in CASO bouillon, the mould on mycological slant agar and rinsed off with 10 ml of 0.85% sodium chloride solution (+0.1% TritonX-100). All test organisms are adjusted to an organism count of 1-5*10^6 CFU/ml with 0.85% sodium chloride solution. The test substances are prepipetted into microtitre plates in an amount of 8 μl per well. Previously diluted test organism suspensions are diluted 1:100 in CASO bouillon (bacteria and yeast) and Sabouraud 2% glucose bouillon (mould) and added to the test substances in an amount of 192 μl per well. The test batches are incubated for 48 hours at 37° C. (bacteria and yeast) or for 5 days at 28° C. (mould). After incubation, the growth is determined by reference to the turbidity of the test batches (optical density) at 620 nm in a microplate reader. The minimum inhibitory concentration (MIC value) is the concentration of substance at which (compared with the growth of the control) an appreciable inhibition of the growth (≦20% growth) of the test organisms is ascertained. One microtitre plate is used for each test organism and substance concentration. All substances are tested in duplicate.

[3] = system: Pseudomonas aeruginosa CIP A-22; experiment: MIC in microtitre plates, Pseudomonas aeruginosa; details: Pseudomonas aeruginosa, CIPA22; Table 1; CIP A-22; 48 hours at 37° C.; ≦20% growth; read-out: MIC Pseudomonas aeruginosa
Procedure: as §2, with “casein-soybean flour-peptone bouillon” for “Mycological slant agar”, “preparation” for “preculture”, “the precultures of the test bacteria and yeast. Pseudomonas aeruginosa CIP A-22” for “moulds. Aspergillus niger ATCC 6275”

[4] = system: Penicillium expansum ATCC 36200; experiment: MIC in microtitre plates, Penicillium expansum; details: ATCC36200, 120 h, Table 1, 5 days at 28° C., ≦20% growth
Procedure: as §1, with “Mycological slant agar” for “casein-soybean flour-peptone bouillon”, “preculture” for “preparation”, “moulds. Penicillium expansum” for “the precultures of the test bacteria and yeast. Corynebacterium xerosis”, “36200” for “373”

`O=C(CC(=O)c1ccccc1O)c1ccco1` [Compound of formula (101)] was tested, and the MIC [1] was 50 µg/mL, the MIC [2] was 100 µg/mL and the MIC [3] was > 1000 µg/mL. It also gave an MIC [4] of 100 µg/mL.
